Earlier results as cited in US20190142336A1, “SYSTEMS AND METHODS FOR DETERMINING RESPONSE TO ANESTHETIC AND SEDATIVE DRUGS USING MARKERS OF BRAIN FUNCTION” (THE GENERAL HOSPITAL CORPORATION, priority 2016, published 2019).

Assays:
[1] = system: dopamine and norepinephrine reuptake transporters
[2] = plethysmography and blood gas

Row | SMILES | emergence from general anesthesia ([1]; isoflurane general anesthesia) | minute ventilation [2] | behavioral and respiratory effects induced by methylphenidate ([1]; given against methylphenidate-induced arousal)
1 | COC(=O)C(c1ccccc1)C1CCCCN1 (stereo not drawn) [methylphenidate] | actively induces emergence | increases minute ventilation | 
2 | O=C(CCCN1CC=C(n2c(=O)[nH]c3ccccc32)CC1)c1ccc(F)cc1 [droperidol] |  |  | inhibited
